This assay deals with ASK1 kinase (Homo sapiens (Human), UniProt Q99683). Description: RBC Kinase Assay (33P-ATP radiometric, myelin basic protein substrate). The class given is biochemical. The note with it: 20 ng ASK1 kinase, MBP substrate, 120 min at room temperature, 1% DMSO. How it is done: Example B1. RBC Kinase Assay Protocol
Base Reaction buffer: 20 mM Hepes (pH 7.5), 10 mM MgCl2, 1 mM EGTA, 0.02% Brij35, 0.02 mg/ml BSA, 0.1 mM Na3VO4, 2 mM DTT, and 1% DMSO were used for the assay.
Myelin base protein (MPB) was prepared in freshly prepared Base Reaction Buffer. 20 ng of ASK1 kinase was delivered into the substrate solution and gently mixed. Compounds in DMSO were delivered into the kinase reaction mixture (final DMSO concentration 1%). Commercially available 33P-ATP was delivered into the reaction mixture to initiate the reaction. The kinase reaction was incubated for 120 min. at room temperature. Reactions were spotted onto P81 ion exchange paper (Whatman #3698-915). Filters were washed extensively in 0.75% Phosphoric acid. Radioactivity on filters was read, and IC50 values were determined.

Sequence of ASK1 kinase (Q99683 whole entry): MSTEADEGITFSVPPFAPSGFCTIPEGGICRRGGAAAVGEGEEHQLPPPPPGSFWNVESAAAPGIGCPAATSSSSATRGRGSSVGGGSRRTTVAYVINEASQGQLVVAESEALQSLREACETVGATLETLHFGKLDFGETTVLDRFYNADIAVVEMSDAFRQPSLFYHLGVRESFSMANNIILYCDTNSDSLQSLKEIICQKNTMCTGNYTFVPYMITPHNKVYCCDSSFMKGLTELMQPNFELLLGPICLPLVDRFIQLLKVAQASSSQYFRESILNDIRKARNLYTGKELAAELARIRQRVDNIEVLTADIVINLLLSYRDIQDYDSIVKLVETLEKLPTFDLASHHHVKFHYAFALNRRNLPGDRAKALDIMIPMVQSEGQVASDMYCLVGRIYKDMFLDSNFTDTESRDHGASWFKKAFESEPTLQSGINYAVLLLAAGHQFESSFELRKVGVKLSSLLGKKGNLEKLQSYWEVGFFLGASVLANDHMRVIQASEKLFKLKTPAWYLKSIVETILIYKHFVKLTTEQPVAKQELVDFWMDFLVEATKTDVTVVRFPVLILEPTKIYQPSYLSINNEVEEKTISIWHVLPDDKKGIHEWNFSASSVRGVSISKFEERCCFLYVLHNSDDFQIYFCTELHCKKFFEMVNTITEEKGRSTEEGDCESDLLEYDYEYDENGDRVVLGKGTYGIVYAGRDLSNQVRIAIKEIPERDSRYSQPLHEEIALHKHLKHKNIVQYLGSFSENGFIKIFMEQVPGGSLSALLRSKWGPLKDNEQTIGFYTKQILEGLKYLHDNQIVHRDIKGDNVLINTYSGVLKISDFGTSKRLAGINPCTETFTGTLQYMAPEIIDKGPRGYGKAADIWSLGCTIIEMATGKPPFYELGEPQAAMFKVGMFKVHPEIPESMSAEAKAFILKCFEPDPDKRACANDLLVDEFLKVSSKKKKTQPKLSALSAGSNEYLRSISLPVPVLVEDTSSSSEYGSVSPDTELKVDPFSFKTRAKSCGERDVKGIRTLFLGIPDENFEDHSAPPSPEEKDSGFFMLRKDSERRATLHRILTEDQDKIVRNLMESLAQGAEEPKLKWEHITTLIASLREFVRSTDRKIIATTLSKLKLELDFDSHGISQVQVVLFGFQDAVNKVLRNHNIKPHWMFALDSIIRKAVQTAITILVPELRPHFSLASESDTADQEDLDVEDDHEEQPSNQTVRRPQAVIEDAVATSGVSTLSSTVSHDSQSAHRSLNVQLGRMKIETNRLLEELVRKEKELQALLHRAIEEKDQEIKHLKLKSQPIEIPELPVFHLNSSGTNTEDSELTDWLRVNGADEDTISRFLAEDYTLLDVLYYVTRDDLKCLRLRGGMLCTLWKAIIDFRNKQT

As a reminder, the IC50 is the midpoint of a concentration-inhibition curve. A higher IC50 goes with lower potency. The compound `C[C@H]1COc2c(NC(=O)c3cc(-n4cnc(C5CC5)c4)c(N4CCOCC4)cn3)cccc2-c2nncn21` [Example 38, (S)-4-(4-cyclopropyl-1H-imidazol-1-yl)-N-(5-methyl-5,6-dihydrobenzo[f][1,2,4]triazolo[4,3-d][1,4]oxazepin-8-yl)-5-morpholinopicolinamide] had a concentration for half-maximal inhibition (IC50) of 0.6 nM.
Turning to `C[C@@H]1COc2c(NC(=O)c3cc(-n4cnc(C5CC5)c4)c(N4CCOCC4)cn3)cccc2-c2nncn21` [Example 39, (R)-4-(4-cyclopropyl-1H-imidazol-1-yl)-N-(5-methyl-5,6-dihydrobenzo[f][1,2,4]triazolo[4,3-d][1,4]oxazepin-8-yl)-5-morpholinopicolinamide], 5.5 nM corresponded to half-maximal inhibition (IC50).
To `Cc1cc(F)c(C(=O)Nc2cccc3c2OCCn2nncc2-3)cc1-n1cnc(C2CC2)c1` [Example 40, 5-(4-cyclopropyl-1H-imidazol-1-yl)-N-(5,6-dihydrobenzo[f][1,2,3]triazolo[1,5-d][1,4]oxazepin-8-yl)-2-fluoro-4-methylbenzamide] belongs 0.5 nM.
`Cc1cc(F)c(C(=O)Nc2cccc3c2OCCn2cncc2-3)cc1-n1cnc(C2CC2)c1` [Example 41, 5-(4-cyclopropyl-1H-imidazol-1-yl)-N-(5,6-dihydrobenzo[f]imidazo[1,5-d][1,4]oxazepin-8-yl)-2-fluoro-4-methylbenzamide]: the half-maximal inhibitory concentration (IC50) was 5.7 nM.
Under `Cc1cc(F)c(C(=O)Nc2cccc3c2O[C@@H](C)Cn2nnnc2-3)cc1-n1cnc(C2CC2)c1` [Example 42, (S)-5-(4-cyclopropyl-1H-imidazol-1-yl)-2-fluoro-4-methyl-N-(6-methyl-5,6-dihydrobenzo[f]tetrazolo[1,5-d][1,4]oxazepin-8-yl)benzamide] stands 16.8 nM; under `Cc1cc(F)c(C(=O)Nc2cccc3c2O[C@H](C)Cn2nnnc2-3)cc1-n1cnc(C2CC2)c1` [Example 43, (R)-5-(4-cyclopropyl-1H-imidazol-1-yl)-2-fluoro-4-methyl-N-(6-methyl-5,6-dihydrobenzo[f]tetrazolo[1,5-d][1,4]oxazepin-8-yl)benzamide], 0.9 nM; under `O=C(Nc1cccc2c1OCCn1cnnc1-2)c1cc(-n2cnc(C3CC3)c2)c(N2CCOCC2)cn1` [Example 44, 4-(4-cyclopropyl-1H-imidazol-1-yl)-N-(5,6-dihydrobenzo[f][1,2,4]triazolo[4,3-d][1,4]oxazepin-8-yl)-5-morpholinopicolinamide], 15.6 nM.
Turning to `Cc1cc(F)c(C(=O)Nc2cccc3c2OC2(CC2)Cn2cnnc2-3)cc1-n1cnc(C2CC2)c1` [Example 45, 5-(4-cyclopropyl-1H-imidazol-1-yl)-2-fluoro-4-methyl-N-(5H-spiro[benzo[f][1,2,4]triazolo[4,3-d][1,4]oxazepine-6,1′-cyclopropan]-8-yl)benzamide], the IC50 was determined as 5.3 nM.
Take `Cc1cc(F)c(C(=O)Nc2cccc3c2OC[C@H](C)n2cncc2-3)cc1-n1cnc(C2CC2)c1` [Example 46, (S)-5-(4-cyclopropyl-1H-imidazol-1-yl)-2-fluoro-4-methyl-N-(5-methyl-5,6-dihydrobenzo[f]imidazo[1,5-d][1,4]oxazepin-8-yl)benzamide]: the half-maximal inhibitory concentration (IC50) was determined as 15.1 nM.
`Cc1cc(F)c(C(=O)Nc2cccc3c2OC[C@@H](C)n2cncc2-3)cc1-n1cnc(C2CC2)c1` [Example 47, (R)-5-(4-cyclopropyl-1H-imidazol-1-yl)-2-fluoro-4-methyl-N-(5-methyl-5,6-dihydrobenzo[f]imidazo[1,5-d][1,4]oxazepin-8-yl)benzamide]: the IC50 came out at 6.8 nM.
The compound `Cc1cc(F)c(C(=O)Nc2cccc3c2OC[C@@H]([C@H](C)O)n2nnnc2-3)cc1-n1cnc(C2CC2)c1` [Example 48, 5-(4-cyclopropyl-1H-imidazol-1-yl)-2-fluoro-N—((S)-5-((S)-1-hydroxyethyl)-5,6-dihydrobenzo[f]tetrazolo[1,5-d][1,4]oxazepin-8-yl)-4-methylbenzamide] gave an IC50 of 5.1 nM.

For the origin of these results see US10919911B2, “Tricyclic ASK1 inhibitors” (Terns, Inc., priority 2018, dated 2021).
